{
  "source": "patent US20260070911A1",
  "about": "“INHIBITORS OF TAM RECEPTORS” (National Health Research Institutes, priority 2022, published 2026)",
  "key": {"MC-38 murine colon tumor": {"system": "MC-38 murine colon tumor", "experiment": "In vivo activity against colon tumor (MC38)", "design": "species or system C57BL/6J mice", "settings": "day 17 after the treatment; 50 mg/kg orally twice a day for 5 days; control 2000 mm^3", "description": "Compound 11 was evaluated for its in vivo efficacy in treating colon tumor. Female C57BL/6J mice between 8-10 weeks of age were used. Murine colon tumor MC38 cells were detected as free of Mycoplasma spp prior to injection into animals. MC38 cells at 10^5 cells per mouse in 100 μL culture medium were implanted subcutaneously into the left flank region of mice with a 25⅝-gauge needle (n=8 animals per group). […] Treatments were initiated after randomization with inclusion of tumors at approximately 50 mm^3.\nControl animals were orally administered with vehicle only. Tumor growths were measured with an electronic caliper and volumes were calculated as L×W×W/2. Tumor size and animal body weight were measured twice a week after tumor cell inoculation. After the treatment, tumor volumes and body weight changes were measured."}, "MC38 murine colon tumor": {"system": "MC38 murine colon tumor", "experiment": "Immune modulatory activity in MC38 murine colon tumor model", "type": "in vivo, C57BL/6J mice", "settings": "50 mg/kg orally twice per day for five days", "description": "Female C57BL/6J mice between 8-10 weeks of age were used. Murine colon tumor MC38 cells were detected as free of Mycoplasma spp prior to injection into animals. MC38 cells at 10^5 cells per mouse in 100 μL culture medium were implanted subcutaneously into the left flank region of mice with a 25⅝-gauge needle (n=5-6 animals per group). […] Treatments were initiated after randomization with inclusion of tumors at approximately 150 mm^3. Tumor growths were measured with an electronic caliper and volumes are calculated as L×W×W/2. Tumor size and animal body weight were measured twice a week after tumor cell inoculation. All experiments were conducted in accordance with the protocols approved by National Health Research Institutes' Institutional Animal Care and Use Committee.\nTen days after the treatment, the tumor cells and spleen cells in the mice were collected to study effect of this compound on the immune cells, i.e., tumor-associated macrophages and T cells. Briefly, tumor and spleen from vehicle control and Compound 11 were harvested and isolated into single cells. Single cell suspension were pre-incubated with mouse Fc receptor blocker before staining with appropriate antibody conjugate for Cd45, Cd3, Cd4, Cd8, F4/80, Cd11b, Cd86, AXL, MERTK and analyzed by flow cytometry to quantify the accumulation of immune cells including Cd4 (Cd3^+Cd4^+), Cd8 (Cd3^+Cd8^+), macrophages (Cd11b^+F4/80^+), tumor associated macrophage (M2, Cd11b^+F4/80^+Cd206^+), classical macrophage (M1, Cd11b^+F4/80+/Cd86^+) populations. For intracellular staining of analysis of tumor-associated macrophage marker Cd206 expression, cells were fixed by using Cytofix/Cytoperm™ kit (BD Biosciences, Franklin Lakes, New Jersey) after surface marker staining and then stain with anti-mouse Cd206 antibody conjugate. Live/dead fixable dye were used to exclude non-viable cells from the analyses."}, "MDA-MB-231 TNBC cells": {"system": "MDA-MB-231 TNBC cells", "experiment": "In vivo activity against breast cancer (MDA-MB-231 xenograft)", "design": "species or system NOD/SCID mice", "settings": "day 35 after the treatment, from 150 mm^3 (control 600 mm^3)", "description": "Compound 11 was further evaluated for its in vivo efficacy in treating breast cancer. MDA-MB-231 TNBC cell lines were used. Prior to injection into animals, the cancer cells were detected as free of Mycoplasma spp. Five million MDA-MB-231 cells in culture medium and matrigel (1:1, v/v) were injected subcutaneously into the left flank region of the NOD/SCID mice (n=8 animals per group). Treatments were initiated after randomization with inclusion of tumors at approximately 150 mm^3. The compound was prepared using 10% DMA: 40% PEG400:50% (1% CMC) (v/v/v).\nEach group was administered orally twice a day for five days. Control animals were orally administered with vehicle only. Tumor growths were measured with an electronic caliper and volumes were calculated as L×W×W/2. Tumor size and animal body weight were measured twice a week after tumor cell inoculation."}},
  "data": [
    {"molecule": "Cn1cc(-c2oc3ncnc(Oc4ccc(NC(=O)c5cccn(-c6ccc(F)cc6)c5=O)cc4)c3c2-c2cccc(N)c2)cn1", "note": "[Compound 11, N-(4-{[5-(3-aminophenyl)-6-(1-methyl-1H-pyrazol-4-yl)furo[2,3-d]pyrimidin-4-yl]oxy}phenyl)-1-(4-fluorophenyl)-2-oxo-1,2-dihydropyridine-3-carboxamide]", "values": [
      {"measurement": "tumor volume", "setting": "MC-38 murine colon tumor", "value": 300, "unit": "mm^3"},
      {"measurement": "expression of MERTK in CD4+ T cells (spleen)", "setting": "MC38 murine colon tumor; decreased from 7%", "value": 3, "unit": "%"},
      {"measurement": "level of M2-phenotype macrophages in the tumor cells", "setting": "MC38 murine colon tumor; decreased from 10%", "value": 5, "unit": "%"},
      {"measurement": "expression of AXL in CD8+ T cells (spleen)", "setting": "MC38 murine colon tumor; decreased from 13%", "value": 5, "unit": "%"},
      {"measurement": "level of macrophages in the tumor cells", "setting": "MC38 murine colon tumor; decreased from 18%", "value": 13, "unit": "%"},
      {"measurement": "expression of MERTK in CD8+ T cells (spleen)", "setting": "MC38 murine colon tumor; decreased from 32%", "value": 20, "unit": "%"},
      {"measurement": "expression of AXL in CD4+ T cells (spleen)", "setting": "MC38 murine colon tumor; decreased from […]", "value": 0.7, "unit": "%"},
      {"measurement": "level of CD4+ T cells in the spleen cells", "setting": "MC38 murine colon tumor; increased from 5%", "value": 10, "unit": "%"},
      {"measurement": "level of CD8+ T cells in the spleen cells", "setting": "MC38 murine colon tumor; increased from 18%", "value": 28, "unit": "%"},
      {"measurement": "level of total T cells in the spleen cells", "setting": "MC38 murine colon tumor; increased from 30%", "value": 43, "unit": "%"},
      {"measurement": "tumor size", "setting": "MC38 murine colon tumor; 10 days after treatment, from 200 mm^3 (vehicle 1000 mm^3)", "value": 350, "unit": "mm^3"},
      {"measurement": "tumor volume", "setting": "MDA-MB-231 TNBC cells; 25 mg/kg orally twice a day for five days", "value": 300, "unit": "mm^3"},
      {"measurement": "tumor volume", "setting": "MDA-MB-231 TNBC cells; 50 mg/kg orally twice a day for five days", "value": 220, "unit": "mm^3"}
    ]}
  ]
}
